Experimental data published in BindingDB's records for PubMed 14633714 (Abbott Laboratories, 2003).

Molecular target: Methionine aminopeptidase 1 (Homo sapiens, UniProt P53582)
Assay: MetAP Enzyme Activity Assay
Details: pH 7.4; 22 °C
Experimental: A coupled enzyme chromogenic assay was developed to measure methionine aminopeptidase activity by monitoring the production of free methionine with L-amino acid oxidase and horseradish peroxidase. Assays were performed in 96-well microtiter plates. The reactions were carried out at room temperature, and absorbance at 450 nm (A450) was measured every 20 s over a period of 20 min using an automatic plate reader (Molecular Devices, CA). The rate in mOD/min, calculated for each well, was converted to nM methionine releases per minute per nM MetAP in the reaction.

`CC(C)CSC[C@@H](N)[C@H](O)C(=O)N[C@@H](C)c1cccc2ccccc12` was tested. Which IC50 did it give?
Its IC50 is 2.2 µM.

`CC(C)SCC[C@@H](N)[C@H](O)C(=O)N[C@@H](C)c1cccc2ccccc12` was tested. Which IC50 did it give?
The IC50 was 12 µM.

How did the IC50 turn out when `CC(C)CSC[C@@H](N)[C@H](O)C(=O)NNC(=O)c1cccc(Cl)c1` was run?
Its IC50 is 8.1 µM.

For `CC(C)SCC[C@@H](N)[C@H](O)C(=O)NNC(=O)c1cccc(Cl)c1` [N'-[(2S,3R)-3-amino-2-hydroxy-5-(propan-2-ylsulfanyl)pentanoyl]-3-chlorobenzohydrazide], which IC50 is on record?
The IC50 was 57 µM.

For `CCSCC[C@@H](N)[C@H](O)C(=O)NNC(=O)c1cccc(Cl)c1` [N'-[(2S,3R)-3-amino-5-(ethylsulfanyl)-2-hydroxypentanoyl]-3-chlorobenzohydrazide], which IC50 is on record?
Its IC50 is 20 µM.

`CCSCC[C@@H](N)[C@H](O)C(=O)N[C@@H](C)c1cccc2ccccc12` [bestatin-type inhibitor, 4] was tested. Which IC50 did it give?
The IC50 was 0.37 µM.

With `CCOC(=O)[C@H](C)NC(=O)[C@@H](O)[C@H](N)CCSC` [ethyl (2S)-2-[(2S,3R)-3-amino-2-hydroxy-5-(methylsulfanyl)pentanamido]propanoate] as the compound, how does the IC50 read?
The IC50 was 63 µM.

Which IC50 does the source give for `CCOC(=O)[C@H](C)NC(=O)[C@@H](O)[C@H](N)CCSCC` [ethyl (2S)-2-[(2S,3R)-3-amino-5-(ethylsulfanyl)-2-hydroxypentanamido]propanoate] here?
The IC50 was 69 µM.

With `CCOC(=O)[C@H](C)NC(=O)[C@@H](O)[C@H](N)CSCC(C)C` [ethyl (2S)-2-[(2S,3S)-3-amino-2-hydroxy-4-[(2-methylpropyl)sulfanyl]butanamido]propanoate] as the compound, how does the IC50 read?
Its IC50 is 66 µM.
